# Laboratory results as given in patent US20190314312A1, “COMBINATION THERAPY TO INCREASE ENDOGENOUS NITRIC OXIDE (NO) SYNTHESIS” (Yeda Research and Development Co. Ltd., priority 2016, published 2019).
# “Also recorded” adds a separate entry of the source.
# How the values were obtained:
# Format in all cases: in vivo, mouse
# [1] = test system: CD64+, CD11c+ macrophages; assay: FACS analysis of colon CD64+, CD11c+ macrophages after colitis induction; conditions: fisetin vs control, FIGS. 14D-F
# Method: Colon segment was flushed with cold PBS, longitudinally cut open and rinsed to remove residual luminal contents. Tissue was cut into 3- to 5-mm pieces and incubated in HBSS medium containing EDTA 0.5 M and Hepes 10 mM at 37° C. for 20 minutes, shaken at 180 rpm, to separate epithelial fraction. Supernatant was centrifuged at 4° C. at 500 g for 10 minutes. Recovered tissue was digested in HBSS medium with 2% fetal bovine serum (FBS), 0.05% collagenase II and 0.05% DNase I (Sigma) for 40 minutes. at 37° C., shaken at 180 rpm. LP cells were filtered through 65 μm mesh and centrifuged at 4° C. at 500 g for 10 minutes. The present inventors prepared single cell suspensions from mouse colon by enzymatic digestion and analyzed by polychromatic flow cytometry. Samples were stained with conjugated antibodies or matching isotype controls according to manufacturer's instructions. Data were acquired on an LSRII (BD Biosciences) or FACSCalibur instrument (Becton-Dickinson) with CellQuest software, with a MacsQuant instrument (Miltenyi, Bergisch Gladbach, Germany), and analyzed using BD FACSDiva 6 or FlowJo software (version 7.6.5, or version vX.0.7 Tree Star Inc) or MacsQuant. Colon cells were stained for 30 min at 4° C. in flow cytometry buffer (PBS, 10% FCS and 0.02% azide). For antigens that require intracellular staining (As1, iNOS and S-nitrosocystein), cell surface staining was followed by cell fixation and permeabilization with the Cytofix/Cytoperm kit (BD Biosciences) according to the manufacturer's instructions. […] After staining for cell surface antigens, intracellular NO was detected by incubation of cells for 15 min at 37° C. with 10 μM DAF-FM diacetate followed by extensive washing, according to the manufacturer's instructions (Molecular Probes). […] As1 was detected using anti-As1-ALEXA FLUOR® 488 (BD Biosciences), iNOS using anti-iNOS followed by anti-rat 488 (Jackson ImmunoResearch), and nitrosylation using anti-S-nitrosocystein (from abcam) followed by anti-mouse 488 (Jackson ImmunoResearch).
# [2] = test system: C57BL/6J.OlaaHsd mice; assay: DSS-induced colitis, treatment with arginine, citrulline, NaNO2, fisetin or citrulline plus fisetin
# Method: Colitis was induced in Vav1^Cre:As1^f/f mice and CD11c^Cre:As1^f/f with 1.5% DSS and with 0.8% DSS in the Villin^Cre:As1^f/f (wt/vol), (Dextran Sodium Sulfate, MP Biomedicals; molecular weight 36,000-50,000 Da). The powder was dissolved in the drinking water for 6 days, followed by 5 days of supplementing regular water^20. Each group consisted of eight to ten, 8-10 weeks old, male mice. Experiments were repeated at least three times. “f/f”—flox/flox.
# Colonoscopy was performed on days 7 and 11 of the experiment to monitor for severity of colitis. For the procedure, a high resolution mouse video endoscopic system was used, which consists of a miniature endoscope (scope 1.9 mm outer diameter), a xenon light source, a triple chip camera, and an air pump to achieve regulated inflation of the mouse bowel (Karl Storz, Tuttlingen, Germany). Mice were anesthetized by the administration of 4-5% of isoflurane in 100% oxygen at a rate of 0.2-0.5 L/min or by the administration of 100 mg/kg Ketamine/10 mg/kg Xylazine mixture IP, after which, the endoscope was introduced via the anus and the colon was carefully insufflated with an air pump before analysis of the colonic mucosa. The endoscopic procedure was viewed on a color monitor and digitally recorded on tape. Colitis was scored according to the Murine endoscopic index of colitis severity (MEICS), considering differences in the thickness of the bowel wall, changes in blood vessel integrity, mucosal surface, stool consistency or the presence of fibrin, scored each between 0 and 3. The cumulative score ranged from 0 (no signs of inflammation) to 15 (signs of severe inflammation)^21.
# Mice were treated with 1% (wt/vol) DSS for 6 days, followed by administration of either arginine 1% (wt/vol) solution (Sigma-Aldrich, St. Louis, Mo., catalogue number A8094) in drinking water, citrulline 1% (wt/vol) (L-citrulline, Chem-Impex International), NaNO2 100 mg (Sigma-Aldrich, St. Louis, Mo., catalogue number S2252), or water as control for additional 6 days.
# Fisetin was given by intraperitoneal (i.p.) injection (1 mg/animal) in 30 μL of DMSO twice weekly. The control group was injected with 30 μL of DMSO twice weekly. Each group consisted of ten, 8-weeks old, male mice. Experiments were repeated three times.
# Histopathology. On the day of sacrifice, colons were removed and their length was measured. Colon was fixed in 2.5% PFA solution overnight at 4° C., then embedded in paraffin, sectioned and stained with H&E. Tissues were examined in a blinded manner by a pathologist and scored on a 0-4 scale based on the parameters of inflammation severity^20.
# [3] = test system: control mice; assay: DSS colitis (0.8% DSS) in control mice, fisetin or NaNO2; conditions: control (WT) mice, 0.8% DSS 5 days, fisetin 1 mg IP twice, FIGS. 4L-N
# Method: (§1) Colitis was induced on C57BL/6J.OlaaHsd mice. Mice were treated with 1% DSS for 6 days, followed by administration of either fiselin (1 mg in 30 μl DMSO IP, twice, in 3 days interval) citrulline 1% (wt/vol) solution in drinking water, the combination of both treatments or only DMSO as a control (30 μl DMSO IP, twice, in 3 days interval). […] FIGS. 4L-N—Colitis was induced on enterocytes CKO mice and compared to controls. Mice were treated with 0.8% DSS for 5 days, followed by administration with either NO donors; NaNO2 (100 mg/kg) or fisetin (1 mg in 30 μl DMSO IP, twice, in 3 days interval). […] Note that colitis severity is reduced by activating As1 in enterocytes, by citrulline and fisetin supplementation.
# (§2) Colitis was induced in Vav1^Cre:As1^f/f mice and CD11c^Cre:As1^f/f with 1.5% DSS and with 0.8% DSS in the Villin^Cre:As1^f/f (wt/vol), (Dextran Sodium Sulfate, MP Biomedicals; molecular weight 36,000-50,000 Da). […]
# (§3) Colonoscopy was performed on days 7 and 11 of the experiment to monitor for severity of colitis. […] The endoscopic procedure was viewed on a color monitor and digitally recorded on tape. Colitis was scored according to the Murine endoscopic index of colitis severity (MEICS), considering differences in the thickness of the bowel wall, changes in blood vessel integrity, mucosal surface, stool consistency or the presence of fibrin, scored each between 0 and 3. […]
# [4] = test system: CD45+ immune system cells; assay: FACS analysis of colon CD45+ immune system cells after colitis induction; conditions: fisetin vs control after colitis induction, FIGS. 14A-C
# Method: Colon segment was flushed with cold PBS, longitudinally cut open and rinsed to remove residual luminal contents. Tissue was cut into 3- to 5-mm pieces and incubated in HBSS medium containing EDTA 0.5 M and Hepes 10 mM at 37° C. for 20 minutes, shaken at 180 rpm, to separate epithelial fraction. Supernatant was centrifuged at 4° C. at 500 g for 10 minutes. Recovered tissue was digested in HBSS medium with 2% fetal bovine serum (FBS), 0.05% collagenase II and 0.05% DNase I (Sigma) for 40 minutes. at 37° C., shaken at 180 rpm. LP cells were filtered through 65 μm mesh and centrifuged at 4° C. at 500 g for 10 minutes. The present inventors prepared single cell suspensions from mouse colon by enzymatic digestion and analyzed by polychromatic flow cytometry. […] Data were acquired on an LSRII (BD Biosciences) or FACSCalibur instrument (Becton-Dickinson) with CellQuest software, with a MacsQuant instrument (Miltenyi, Bergisch Gladbach, Germany), and analyzed using BD FACSDiva 6 or FlowJo software (version 7.6.5, or version vX.0.7 Tree Star Inc) or MacsQuant. […] After staining for cell surface antigens, intracellular NO was detected by incubation of cells for 15 min at 37° C. with 10 μM DAF-FM diacetate followed by extensive washing, according to the manufacturer's instructions (Molecular Probes). […]
# [5] = test system: enterocytes CKO mice; assay: DSS colitis (0.8% DSS) in enterocytes CKO mice, fisetin or NaNO2; conditions: 0.8% DSS 5 days, fisetin 1 mg IP twice, FIGS. 4L-N
# Method: as §1, §2, §3
# [6] = test system: enterocytes; assay: FACS analysis of colon epithelial cells (enterocytes) after colitis induction
# Method: Colon segment was flushed with cold PBS, longitudinally cut open and rinsed to remove residual luminal contents. Tissue was cut into 3- to 5-mm pieces and incubated in HBSS medium containing EDTA 0.5 M and Hepes 10 mM at 37° C. for 20 minutes, shaken at 180 rpm, to separate epithelial fraction. Supernatant was centrifuged at 4° C. at 500 g for 10 minutes. Recovered tissue was digested in HBSS medium with 2% fetal bovine serum (FBS), 0.05% collagenase II and 0.05% DNase I (Sigma) for 40 minutes. at 37° C., shaken at 180 rpm. LP cells were filtered through 65 μm mesh and centrifuged at 4° C. at 500 g for 10 minutes. The present inventors prepared single cell suspensions from mouse colon by enzymatic digestion and analyzed by polychromatic flow cytometry. Samples were stained with conjugated antibodies or matching isotype controls according to manufacturer's instructions. Data were acquired on an LSRII (BD Biosciences) or FACSCalibur instrument (Becton-Dickinson) with CellQuest software, with a MacsQuant instrument (Miltenyi, Bergisch Gladbach, Germany), and analyzed using BD FACSDiva 6 or FlowJo software (version 7.6.5, or version vX.0.7 Tree Star Inc) or MacsQuant. Colon cells were stained for 30 min at 4° C. in flow cytometry buffer (PBS, 10% FCS and 0.02% azide). For antigens that require intracellular staining (As1, iNOS and S-nitrosocystein), cell surface staining was followed by cell fixation and permeabilization with the Cytofix/Cytoperm kit (BD Biosciences) according to the manufacturer's instructions. For staining, the present inventors used a lineage cocktail of antibodies anti-CD45-APC, Anti-CD64-PE, Anti-CD11c-PB, Anti-326-APC cy7, Anti CD31-PE cy7 (all from BioLegend). After staining for cell surface antigens, intracellular NO was detected by incubation of cells for 15 min at 37° C. with 10 μM DAF-FM diacetate followed by extensive washing, according to the manufacturer's instructions (Molecular Probes). Staining without addition of the DAF-FM probe was considered to be the baseline for gating the positive population. As1 was detected using anti-As1-ALEXA FLUOR® 488 (BD Biosciences), iNOS using anti-iNOS followed by anti-rat 488 (Jackson ImmunoResearch), and nitrosylation using anti-S-nitrosocystein (from abcam) followed by anti-mouse 488 (Jackson ImmunoResearch).
smiles,measurement,setting,value
"O=c1c(O)c(-c2ccc(O)c(O)c2)oc2cc(O)ccc12 [fisetin, 3,7, 3′, 4′-tetrahydroxyflavone]",As1 levels,[1],decrease
same,NO levels,[1],decrease
same,iNOS levels,[1],decrease
same,weight loss,"[2]; 1% DSS 6 days, then fisetin 1 mg IP twice, citrulline 1% in drinking water or both vs DMSO control, FIG. 4B",significant weight loss is documented in the control group compared to the treated mice
same,colitis severity in all parameters,"[2]; fisetin vs control, FIG. 4A-E",improved colitis severity in all parameters
same,colon length,"[2]; fisetin, citrulline or both vs DMSO control, FIG. 4D",significant longer
same,histological score,"[2]; fisetin, citrulline or both vs DMSO control, FIG. 4E",significant reduction
same,"effect of treatment on colitis (survival, body weight gain, colitis score)",[3],improved colitis severity
same,"effect of treatment on colitis (survival, body weight gain, colitis score)",[3]; listed as Fisetin,effective in the control group
same,As1 levels,[4],decrease
same,iNOS levels,[4],not in the intestinal immune cells; also recorded: decrease
same,"effect of treatment on colitis (survival, body weight gain, colitis score)",[5],did not have an effect
same,"effect of treatment on colitis (survival, body weight gain, colitis score)",[5]; listed as Fisetin,not in the enterocytes CKO mice
same,NO levels in enterocytes (colon epithelial cells),"[6]; after colitis induction, treated vs control, FIGS. 3F-J, 4F-I",increased; also recorded: significant increase
same,iNOS expression in enterocytes (colon cells),"[6]; fisetin vs control after colitis induction, FIGS. 4J-K",increased; also recorded: significant increase
same,ASL levels in enterocytes,"[6]; fisetin, FIGS. 4H-L",increase
